Columns and labels:
[1] = target: Mitogen-activated protein kinase 1 (Homo sapiens, UniProt P28482); test: Inhibition of ERK2 (unknown origin) incubated for 60 mins by luminescence based ADP-Glo kinase assay
[2] = tested on: MCF7; test: Antiproliferative activity against human MCF7 cells incubated for 48 hrs by CCK-8 method; format: functional, cell-based; conditions: MCF7, 48 h
[3] = tested on: 4T1; test: Antiproliferative activity against mouse 4T1 cells incubated for 48 hrs by CCK-8 method; format: functional, cell-based; conditions: 4T1, 48 h
[4] = tested on: MDA-MB-468; test: Antiproliferative activity against human MDA-MB-468 cells incubated for 48 hrs by CCK-8 method; format: functional, cell-based; conditions: MDA-MB-468, 48 h
[5] = tested on: HCC1937; test: Antiproliferative activity against human HCC1937 cells incubated for 48 hrs by CCK-8 method; format: functional, cell-based; conditions: HCC1937, 48 h
[6] = tested on: MCF-10A; test: Antiproliferative activity against human MCF-10A cells incubated for 48 hrs by CCK-8 method; format: functional, cell-based

Sequence of Mitogen-activated protein kinase 1 (P28482 whole entry): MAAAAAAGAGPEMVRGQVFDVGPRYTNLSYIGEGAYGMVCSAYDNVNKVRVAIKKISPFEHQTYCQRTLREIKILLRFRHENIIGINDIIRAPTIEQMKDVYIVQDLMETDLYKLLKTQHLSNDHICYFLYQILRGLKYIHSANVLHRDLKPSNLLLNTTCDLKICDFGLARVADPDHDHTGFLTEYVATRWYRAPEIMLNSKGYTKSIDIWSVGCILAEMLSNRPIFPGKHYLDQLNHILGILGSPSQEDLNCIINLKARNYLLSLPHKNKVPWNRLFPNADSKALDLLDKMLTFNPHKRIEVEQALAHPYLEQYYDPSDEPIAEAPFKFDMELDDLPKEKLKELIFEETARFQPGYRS

| IC50 [1] [nM] | IC50 [2] [nM] | IC50 [3] [µM] | IC50 [4] [nM] | IC50 [5] [µM] | Structure (SMILES) | IC50 [6] [µM] |
| --- | --- | --- | --- | --- | --- | --- |
| 319 | 1910 | 4.59 | 1810 | 4.53 | O=C(Nc1cc(C(F)(F)F)cc(C(F)(F)F)c1)N[C@@H](Cc1ccccc1)Cn1c[n+](Cc2ccc(Cl)cc2)c2ccccc21 | 9.78 |
| 185 | 1860 | 7.03 | 2340 | 3.48 | O=C(Nc1cc(C(F)(F)F)cc(C(F)(F)F)c1)N[C@@H](Cc1ccccc1)Cn1c[n+](Cc2cccc(C(F)(F)F)c2)c2ccccc21 | > 10 |
| 399 | 2520 | 6.62 | 3690 | 3.62 | Cc1ccc(NC(=O)N[C@@H](Cc2ccccc2)Cn2c[n+](Cc3ccc4ccccc4c3)c3ccccc32)cc1 | > 10 |
| 248 | 2420 | 7.2 | 3020 | 1.71 | O=C(Nc1ccc(Cl)cc1)N[C@@H](Cc1ccccc1)Cn1c[n+](Cc2ccc3ccccc3c2)c2ccccc21 | > 10 |
| 123 | 2770 | 4.83 | 1910 | 2.75 | Cc1ccccc1C[n+]1cn(C[C@H](Cc2ccccc2)NC(=O)Nc2cc(C(F)(F)F)cc(C(F)(F)F)c2)c2ccccc21 | > 10 |
| 370 | 1790 | 5.29 | 1810 | 1.13 | O=C(Nc1cc(C(F)(F)F)cc(C(F)(F)F)c1)N[C@@H](Cc1ccccc1)Cn1c[n+](Cc2ccc3cccnc3c2)c2ccccc21 | 8.22 |
| 133 | 2430 | 5.33 | 1710 | 3.17 | O=C(Nc1cc(C(F)(F)F)cc(C(F)(F)F)c1)N[C@@H](Cc1ccccc1)Cn1c[n+](Cc2cccc(F)c2)c2ccccc21 | 9.32 |
| 237 | 1530 | 5.63 | 2440 | 2.41 | O=C(Nc1cc(C(F)(F)F)cc(C(F)(F)F)c1)N[C@@H](Cc1ccccc1)Cn1c[n+](C/C=C/c2ccccc2)c2ccccc21 | > 10 |
| 244 | 1590 | > 10 | 1290 | 2.55 | O=C(Nc1ccc(Cl)c(C(F)(F)F)c1)N[C@@H](Cc1ccccc1)Cn1c[n+](Cc2ccc3ccccc3c2)c2ccccc21 | > 10 |
| 252 | 1720 | 4.97 | 1880 | 2.96 | O=C(Nc1cc(C(F)(F)F)cc(C(F)(F)F)c1)N[C@@H](Cc1ccccc1)Cn1c[n+](Cc2ccccc2C(F)(F)F)c2ccccc21 | 7.68 |
| 223 | 1610 | 5.63 | 2500 | 2.68 | O=C(Nc1cc(C(F)(F)F)cc(C(F)(F)F)c1)N[C@@H](Cc1ccccc1)Cn1c[n+](Cc2ccc(C(F)(F)F)cc2)c2ccccc21 | 8.12 |
| 414 | 3840 | 7.41 | 3640 | 5.6 | N#Cc1ccccc1C[n+]1cn(C[C@H](Cc2ccccc2)NC(=O)Nc2cc(C(F)(F)F)cc(C(F)(F)F)c2)c2ccccc21 | > 10 |
| 217 | 1070 | 3.72 | 2080 | 2.98 | O=C(Nc1ccc(C(F)(F)F)cc1)N[C@@H](Cc1ccccc1)Cn1c[n+](Cc2ccc3ccccc3c2)c2ccccc21 | > 10 |
| 236 | 1940 | 3.51 | 1620 | 3 | O=C(Nc1cc(C(F)(F)F)cc(C(F)(F)F)c1)N[C@@H](Cc1ccccc1)Cn1c[n+](Cc2ccccc2Br)c2ccccc21 | 9.25 |
| 392 | 5030 | > 10 | 2660 | 3.82 | N#Cc1ccc(C[n+]2cn(C[C@H](Cc3ccccc3)NC(=O)Nc3cc(C(F)(F)F)cc(C(F)(F)F)c3)c3ccccc32)cc1 | > 10 |
| 235 | 1990 | 3.88 | 2060 | 1.87 | O=C(Nc1cc(C(F)(F)F)cc(C(F)(F)F)c1)N[C@@H](Cc1ccccc1)Cn1c[n+](Cc2ccccc2Cl)c2ccccc21 | 9.18 |
| 294 | 2840 | 9.67 | 3220 | 4.2 | O=C(Nc1cc(C(F)(F)F)cc(C(F)(F)F)c1)N[C@@H](Cc1ccccc1)Cn1c[n+](Cc2ccc(F)cc2)c2ccccc21 | > 10 |
| 335 | 3360 | > 10 | 5290 | 5.96 | N#Cc1cccc(C[n+]2cn(C[C@H](Cc3ccccc3)NC(=O)Nc3cc(C(F)(F)F)cc(C(F)(F)F)c3)c3ccccc32)c1 | > 10 |

| IC50 [1] [nM] | IC50 [2] [nM] | IC50 [3] [µM] | IC50 [4] [nM] | IC50 [5] [µM] | Structure (SMILES) | IC50 [6] [µM] |
| --- | --- | --- | --- | --- | --- | --- |
| 277 | 2780 | 6.37 | 3050 | 6.56 | O=C(Nc1ccc(Br)cc1)N[C@@H](Cc1ccccc1)Cn1c[n+](Cc2ccc3ccccc3c2)c2ccccc21 | > 10 |
| 327 | 2700 | 7.82 | 3250 | 5.98 | Cc1cc(C)cc(NC(=O)N[C@@H](Cc2ccccc2)Cn2c[n+](Cc3ccc4ccccc4c3)c3ccccc32)c1 | > 10 |
| 338 | 2190 | 6.77 | 2220 | 1.82 | O=C(Nc1cc(C(F)(F)F)cc(C(F)(F)F)c1)N[C@@H](Cc1ccccc1)Cn1c[n+](Cc2ccc(Br)cc2)c2ccccc21 | > 10 |
| 315 | 2990 | 5.8 | 2240 | 1.49 | Cc1ccc(C[n+]2cn(C[C@H](Cc3ccccc3)NC(=O)Nc3cc(C(F)(F)F)cc(C(F)(F)F)c3)c3ccccc32)cc1 | > 10 |
| 215 | 1550 | 6.77 | 2450 | 3.37 | O=C(Nc1ccc(Cl)c(Cl)c1)N[C@@H](Cc1ccccc1)Cn1c[n+](Cc2ccc3ccccc3c2)c2ccccc21 | 9.72 |
| 394 | 1980 | 8.44 | 2800 | 3.2 | O=C(Nc1ccc(F)cc1)N[C@@H](Cc1ccccc1)Cn1c[n+](Cc2ccc3ccccc3c2)c2ccccc21 | 8.75 |
| 195 | 3150 | 5.53 | 3450 | 2.15 | O=C(Nc1cc(C(F)(F)F)cc(C(F)(F)F)c1)N[C@@H](Cc1ccccc1)Cn1c[n+](Cc2c(Cl)cccc2Cl)c2ccccc21 | > 10 |
| 170 | 1800 | 2.31 | 1580 | 1.69 | O=C(Nc1cc(C(F)(F)F)cc(C(F)(F)F)c1)N[C@@H](Cc1ccccc1)Cn1c[n+](Cc2cccc(Br)c2)c2ccccc21 | 8.96 |
| 198 | 1700 | 4.63 | 2150 | 1.54 | O=C(Nc1cc(C(F)(F)F)cc(C(F)(F)F)c1)N[C@@H](Cc1ccccc1)Cn1c[n+](Cc2ccc(Cl)cc2Cl)c2ccccc21 | > 10 |
| 275 | 1700 | 6.78 | 2360 | 3.72 | Cc1cccc(C[n+]2cn(C[C@H](Cc3ccccc3)NC(=O)Nc3cc(C(F)(F)F)cc(C(F)(F)F)c3)c3ccccc32)c1 | > 10 |
| 193 | 3250 | 6.78 | 2620 | 2.05 | O=C(Nc1cc(C(F)(F)F)cc(C(F)(F)F)c1)N[C@@H](Cc1ccccc1)Cn1c[n+](Cc2cc(Cl)ccc2Cl)c2ccccc21 | > 10 |
| > 10000 | > 10000 | > 10 | > 10000 | > 10 | CC[n+]1cn(C[C@H](Cc2ccccc2)NC(=O)Nc2cc(C(F)(F)F)cc(C(F)(F)F)c2)c2ccccc21 | > 10 |
| 247 | 1320 | 3.54 | 1570 | 3.68 | COc1cccc(C[n+]2cn(C[C@H](Cc3ccccc3)NC(=O)Nc3cc(C(F)(F)F)cc(C(F)(F)F)c3)c3ccccc32)c1 | > 10 |
| > 10000 | > 10000 | > 10 | > 10000 | > 10 | C=CC[n+]1cn(C[C@H](Cc2ccccc2)NC(=O)Nc2cc(C(F)(F)F)cc(C(F)(F)F)c2)c2ccccc21 | > 10 |
| 280 | 3200 | 6.89 | 1640 | 3.18 | O=C(Nc1cc(C(F)(F)F)cc(C(F)(F)F)c1)N[C@@H](Cc1ccccc1)Cn1c[n+](Cc2cccc(OCc3ccccc3)c2)c2ccccc21 | > 10 |
| 217 | 2090 | 3.13 | 1820 | 1.77 | O=C(Nc1cc(C(F)(F)F)cc(C(F)(F)F)c1)N[C@@H](Cc1ccccc1)Cn1c[n+](Cc2ccccc2F)c2ccccc21 | 8.38 |
| 166 | 2340 | 3.68 | 2120 | 3.4 | O=C(Nc1cc(C(F)(F)F)cc(C(F)(F)F)c1)N[C@@H](Cc1ccccc1)Cn1c[n+](Cc2cccc(Cl)c2)c2ccccc21 | > 10 |
